Data set [1] deals with 5-HT (Homo sapiens, UniProt P31645). Put plainly: Inhibition of neurotransmitter uptake in vitro, 5-HT. It counts as cell-based. To be noted: for IC50: 5-HT = (so in the source), read-out: UPTAKE NEUROTRANSMETTEUR IN VITRO IC 50 M 5-HT.
Data set [2] has as its target DA (Homo sapiens, UniProt Q01959). The data set is described as follows: Inhibition of neurotransmitter uptake in vitro, dopamine. It counts as cell-based. Particulars: for IC50: read-out: UPTAKE NEUROTRANSMETTEUR IN VITRO IC 50 M DA; for UPTAKE NEUROTRANSMETTEUR IN VITRO IC 50 M DA: DA = Dopamine.
The target in data set [3] is NAd (Homo sapiens, UniProt P23975). Put plainly: Inhibition of neurotransmitter uptake in vitro, noradrenaline. It counts as cell-based. To be noted: NAd = Noradrénaline; for IC50: read-out: UPTAKE NEUROTRANSMETTEUR IN VITRO IC 50 M NAd.
The target of data set [4] is RECEPTEURS α2. The data set is described as follows: Affinity for the α2 receptor in vitro. It counts as binding. To be noted: read-out: AFFINITE RECEPTEURS α2 IN VITRO IC […]; read-out: […] […] α2 IN VITRO IC 50 M.
Data set [5] concerns récepteurs α₂. To be noted: lizard; Carter and Shuster, Br. J. Pharmacol. (1982), 75, 169-176; cited from earlier work.
A short description of data set [6]: Motor activity (exploration) in the mouse. It counts as in vivo, souris.
The conditions of data set [7]: mouse, doses 0,75 à 20 mg/kg.
A short description of data set [8]: Cardiovascular activity in the anaesthetised dog. It counts as in vivo, chien. The text has this: Les 2-amino-oxazolines selon l'invention se caractérisent par des propriétés pharmacologiques intéressantes, et notamment par des propriétés anti-dépressives, hypertensives et analeptiques vasculaires. Elles agissent sur les récepteurs α₂, soit par un phénomène de bloquage, soit par un effet agoniste. […] Cet effet s'apparente donc à celui de la Yohimbine.
Chez le chien anesthésié, l'injection des produits selon l'invention provoque une hypertension durable, à des doses relativement faibles, allant de 0,05 à 1 mg/kg I.V.

The conditions of data set [9]: in vivo.

Chain of 5-HT (P31645 whole entry): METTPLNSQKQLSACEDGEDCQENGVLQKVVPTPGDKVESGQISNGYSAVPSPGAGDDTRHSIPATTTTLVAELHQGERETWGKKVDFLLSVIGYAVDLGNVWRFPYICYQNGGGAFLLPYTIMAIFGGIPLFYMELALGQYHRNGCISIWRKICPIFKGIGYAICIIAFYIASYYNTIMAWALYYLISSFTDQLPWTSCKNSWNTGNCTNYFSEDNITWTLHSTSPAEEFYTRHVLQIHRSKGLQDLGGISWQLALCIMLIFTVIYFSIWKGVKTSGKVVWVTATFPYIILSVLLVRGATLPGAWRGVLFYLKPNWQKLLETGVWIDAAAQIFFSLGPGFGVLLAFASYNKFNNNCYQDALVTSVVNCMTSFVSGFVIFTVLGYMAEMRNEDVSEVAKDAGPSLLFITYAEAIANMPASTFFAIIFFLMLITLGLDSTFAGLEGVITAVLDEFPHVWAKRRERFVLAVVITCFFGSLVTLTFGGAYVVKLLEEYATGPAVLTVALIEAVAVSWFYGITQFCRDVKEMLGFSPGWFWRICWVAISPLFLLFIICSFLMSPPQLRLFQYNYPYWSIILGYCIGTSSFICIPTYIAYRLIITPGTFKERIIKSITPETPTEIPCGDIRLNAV
Chain of DA (Q01959 whole entry): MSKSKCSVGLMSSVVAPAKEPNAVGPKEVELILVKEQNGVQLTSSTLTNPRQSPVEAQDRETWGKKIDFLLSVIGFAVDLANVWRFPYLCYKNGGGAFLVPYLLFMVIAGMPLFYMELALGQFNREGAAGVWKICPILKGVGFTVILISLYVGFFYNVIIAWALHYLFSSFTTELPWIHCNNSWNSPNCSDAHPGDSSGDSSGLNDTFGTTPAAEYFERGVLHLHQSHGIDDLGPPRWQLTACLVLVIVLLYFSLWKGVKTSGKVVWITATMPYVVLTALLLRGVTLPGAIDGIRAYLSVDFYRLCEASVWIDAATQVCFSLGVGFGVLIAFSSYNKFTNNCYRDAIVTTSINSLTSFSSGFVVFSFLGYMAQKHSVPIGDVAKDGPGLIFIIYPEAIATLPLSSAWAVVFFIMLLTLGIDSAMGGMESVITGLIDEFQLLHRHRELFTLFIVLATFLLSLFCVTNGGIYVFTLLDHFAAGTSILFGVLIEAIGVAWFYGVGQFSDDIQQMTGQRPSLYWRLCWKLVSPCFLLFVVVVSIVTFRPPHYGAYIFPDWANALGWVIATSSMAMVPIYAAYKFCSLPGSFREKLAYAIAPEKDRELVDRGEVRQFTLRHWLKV
Chain of NAd (P23975 whole entry): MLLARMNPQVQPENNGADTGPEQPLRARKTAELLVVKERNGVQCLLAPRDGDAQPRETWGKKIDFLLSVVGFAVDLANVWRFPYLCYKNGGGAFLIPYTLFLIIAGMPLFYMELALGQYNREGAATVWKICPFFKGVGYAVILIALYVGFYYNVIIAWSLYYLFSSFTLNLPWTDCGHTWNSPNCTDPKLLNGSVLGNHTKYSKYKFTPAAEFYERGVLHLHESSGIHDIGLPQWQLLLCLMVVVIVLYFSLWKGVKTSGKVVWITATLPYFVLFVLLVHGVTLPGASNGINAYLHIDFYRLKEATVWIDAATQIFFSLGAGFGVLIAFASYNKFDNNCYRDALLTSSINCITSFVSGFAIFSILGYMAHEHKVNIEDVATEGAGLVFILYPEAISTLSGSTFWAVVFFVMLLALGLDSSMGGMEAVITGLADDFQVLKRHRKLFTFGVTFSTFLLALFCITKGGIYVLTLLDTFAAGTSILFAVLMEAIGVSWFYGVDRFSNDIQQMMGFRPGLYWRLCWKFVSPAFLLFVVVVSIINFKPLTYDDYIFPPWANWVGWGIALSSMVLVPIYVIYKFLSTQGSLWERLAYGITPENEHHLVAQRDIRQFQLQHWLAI

For the compound `NC1=NC(COc2ccccc2)CO1` (racemic) [ex. 6, 4-phénoxy-méthyl 2-amino-oxazoline], the IC50 in data set [1] and in data set [2] was greater than 10000 nM each time. Besides, the “UPTAKE NEUROTRANSMETTEUR IN VITRO IC 50 M NAd” value in [3] is on record as “nul à 10^-5”.

In the case of `NC1=NC(Cc2ccc(Cl)cc2)CO1` (racemic) [ex. 10], the IC50 in data set [4] was 44 nM; in [1] it was 4000 nM; in data set [2], 2300 nM; in [3] it was 4000 nM.

Consider `NC1=NC(Cc2ccccc2Cl)CO1` (racemic) [ex. 11], for which the IC50 in [4] was 2.7 nM; in data set [1], greater than 10000 nM; in data set [2] it was greater than 10000 nM; in [3] it was 2500 nM.

For `NC1=NC(CCc2ccccc2)CO1` (racemic) [ex. 13], the IC50 is greater than 100 nM in data set [4] and 230 nM in data set [3]. For the same compound, in [1] (5-HT = 5-hydroxytryptophane (so in the source)), the “UPTAKE NEUROTRANSMETTEUR IN VITRO IC 50 M 5-HT” value was “nul à 10^-6”. The “UPTAKE NEUROTRANSMETTEUR IN VITRO IC 50 M DA” value in data set [2] is on record as “nul à 10^-6”.

Take `NC1=NC(Cc2ccc(O)cc2)CO1` (racemic) [ex. 20]: the IC50 in [4] is greater than 100 nM.

For the compound `NC1=NC(Cc2ccccc2)CO1` (single isomer, unassigned) [ex. 12], the IC50 is 4 nM in data set [4], greater than 10000 nM in [1], 4000 nM in data set [2] and 400 nM in data set [3].

With `NC1=NC(Cc2ccccc2Cl)CO1` (single isomer, unassigned) [ex. 23], the IC50 in data set [4] turned out to be 3.3 nM.

In the case of `Clc1cccc(Cl)c1N=C1NCCN1` [CLONIDINE], the “noircissement qui résulte du traitement par le MSH” value in [5] is “antagonisé”. In addition, the IC50 in data set [4] was found to be 1 nM. Besides, in data set [6], the exploration entry is “diminuent l'exploration”. Besides, in [7], the température centrale entry is on record as “baisse de température”. Further, the “activité vasomotrice (vasodilatation ou vasoconstriction primaire)” value in data set [8] is recorded as “activité vasoconstrictive d'emblée”. The “activité diabétogène” value in data set [9] is “activité diabétogène expérimentale”.

In the case of `c1ccc2c(c1)OCC(C1=NCCN1)O2` (centres unmarked) [IDAZOXAN, reference compound], the IC50 in [4] came to 29 nM.

As to `Cc1ccc(N(CC2=NCCN2)c2cccc(O)c2)cc1` [PHENTOLAMINE, reference compound], the IC50 in data set [4] was 22 nM.

Regarding `NC1=NC(COc2ccccc2Cl)CO1` (centres unmarked) [ex. 5, 4-(2-chlorophénoxyméthyl) 2-amino-oxazoline], the IC50 is 33 nM in data set [4], 2800 nM in [1], 7200 nM in [2] and greater than 10000 nM in [3].

With `COc1ccc(OCC2COC(N)=N2)cc1` (centres unmarked) [ex. 7, 4-(4-méthoxyphenoxymethyl) 2-amino-oxazoline], the IC50 was greater than 100 nM in data set [4] and greater than 10000 nM in data set [1]. Besides, the “UPTAKE NEUROTRANSMETTEUR IN VITRO IC 50 M DA” value in [2] is reported as “nul à 10^-5”. Also, the “UPTAKE NEUROTRANSMETTEUR IN VITRO IC 50 M NAd” value in data set [3] is “nul à 10^-5”.

In the case of `NC1=NC(COCc2ccccc2)CO1` (centres unmarked) [ex. 8, 4-(benzyloxy-méthyl) 2-amino-oxazoline], the IC50 was greater than 100 nM in data set [4] and greater than 10000 nM in [1]. Besides, the “UPTAKE NEUROTRANSMETTEUR IN VITRO IC 50 M DA” value in data set [2] is “nul à 10^-5”. Further, the “UPTAKE NEUROTRANSMETTEUR IN VITRO IC 50 M NAd” value in data set [3] was “nul à 10^-5”.

The record behind these values is patent EP0167459B1, “2-Amino oxazolines and process for their preparation” (priority 1984, dated 1986).
